# PubChem BioAssay AID2060898 (Molecular Pharmacology Branch, DTP, NCI, 2025)
# pIC50: −log10 of the molar value.
# Test system: 616215-338-R-J1-PDC complex spheroid viability
# Test: Anticancer human tumor 616215-338-R-J1-PDC patient-derived colon adenocarcinoma cell line growth inhibition [RAS]
# Details: for pIC50: curve of first compound; for viability, T/C: stronger effect = lower value
# Outline: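 Multi-cell-type spheroids: tumor cells plus HUVEC endothelial cells and mesenchymal stem cells. RAS-pathway inhibitors were combined with targeted agents, each dosed in half-log steps down from clinical Cmax, or from 10 microM when Cmax was unknown.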
# [1] = second compound 0.0316 µM, first compound 0.00316 µM
# [2] = second compound 0.0316 µM, first compound 0.01 µM
# [3] = second compound 0.0316 µM, first compound 0.0316 µM
# [4] = second compound 0.0316 µM, first compound 0.1 µM
# [5] = second compound 0.0316 µM, first compound 0.316 µM
# [6] = second compound 0.0316 µM, first compound 1 µM
# [7] = second compound 0.1 µM, first compound 0.00316 µM
# [8] = second compound 0.1 µM, first compound 0.01 µM
# [9] = second compound 0.1 µM, first compound 0.0316 µM
# [10] = second compound 0.1 µM, first compound 0.1 µM
# [11] = second compound 0.1 µM, first compound 0.316 µM
# [12] = second compound 0.1 µM, first compound 1 µM
# [13] = second compound 0.316 µM, first compound 0.00316 µM
# [14] = second compound 0.316 µM, first compound 0.01 µM
# [15] = second compound 0.316 µM, first compound 0.0316 µM
# [16] = second compound 0.316 µM, first compound 0.1 µM
# [17] = second compound 0.316 µM, first compound 0.316 µM
# [18] = second compound 0.316 µM, first compound 1 µM
# [19] = second compound 1 µM, first compound 0.00316 µM
# [20] = second compound 1 µM, first compound 0.01 µM
# [21] = second compound 1 µM, first compound 0.0316 µM
# [22] = second compound 1 µM, first compound 0.1 µM
# [23] = second compound 1 µM, first compound 0.316 µM
# [24] = second compound 1 µM, first compound 1 µM
# [25] = second compound 0.0316 µM, first compound 0.000949 µM
# [26] = second compound 0.0316 µM, first compound 0.003 µM
# [27] = second compound 0.0316 µM, first compound 0.00949 µM
# [28] = second compound 0.0316 µM, first compound 0.03 µM
# [29] = second compound 0.0316 µM, first compound 0.0949 µM
# [30] = second compound 0.0316 µM, first compound 0.3 µM
# [31] = second compound 0.1 µM, first compound 0.000949 µM
# [32] = second compound 0.1 µM, first compound 0.003 µM
# [33] = second compound 0.1 µM, first compound 0.00949 µM
# [34] = second compound 0.1 µM, first compound 0.03 µM
# [35] = second compound 0.1 µM, first compound 0.0949 µM
# [36] = second compound 0.1 µM, first compound 0.3 µM
# [37] = second compound 0.316 µM, first compound 0.000949 µM
# [38] = second compound 0.316 µM, first compound 0.003 µM
# [39] = second compound 0.316 µM, first compound 0.00949 µM
# [40] = second compound 0.316 µM, first compound 0.03 µM
# [41] = second compound 0.316 µM, first compound 0.0949 µM
# [42] = second compound 0.316 µM, first compound 0.3 µM
# [43] = second compound 1 µM, first compound 0.000949 µM
# [44] = second compound 1 µM, first compound 0.003 µM
# [45] = second compound 1 µM, first compound 0.00949 µM
# [46] = second compound 1 µM, first compound 0.03 µM
# [47] = second compound 1 µM, first compound 0.0949 µM
# [48] = second compound 1 µM, first compound 0.3 µM
# [49] = second compound 3.16 µM, first compound 0.000949 µM
# [50] = second compound 3.16 µM, first compound 0.003 µM
# [51] = second compound 3.16 µM, first compound 0.00949 µM
# [52] = second compound 3.16 µM, first compound 0.03 µM
# [53] = second compound 3.16 µM, first compound 0.0949 µM
# [54] = second compound 3.16 µM, first compound 0.3 µM
# [55] = second compound 10 µM, first compound 0.000949 µM
# [56] = second compound 10 µM, first compound 0.003 µM
# [57] = second compound 10 µM, first compound 0.00949 µM
# [58] = second compound 10 µM, first compound 0.03 µM
# [59] = second compound 10 µM, first compound 0.0949 µM
# [60] = second compound 10 µM, first compound 0.3 µM
# 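Note: spheroids exposed to agents for seven days before viability readout.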
# 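Throughout, for viability, T/C: 100% = DMSO vehicle control viability.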
structure (smiles),measurement,setting,value
C=CC(=O)N1CCN(c2nc(OCC3CCCN3C)nc3c(F)c(-c4nc(N)cc(C)c4C(F)(F)F)c(Cl)cc23)C(C)C1 (stereo not drawn) + C#Cc1c(F)ccc2cc(O)cc(-c3ncc4c(N5CC6CCC(C5)N6)nc(OCC56CCCN5CC(F)C6)nc4c3F)c12,pIC50,second compound 0.0316 µM,< 6.00
same,pIC50,second compound 0.1 µM,< 6.00
same,pIC50,second compound 0.316 µM,< 6.00
same,pIC50,second compound 1 µM,< 6.00
same,pIC50,second compound 3.16 µM,< 6.00
same,pIC50,second compound 10 µM,< 6.00
same,"viability, T/C",[1],107%
same,"viability, T/C",[2],112%
same,"viability, T/C",[3],101%
same,"viability, T/C",[4],106%
same,"viability, T/C",[5],100%
same,"viability, T/C",[6],104%
same,"viability, T/C",[7],121%
same,"viability, T/C",[8],105%
same,"viability, T/C",[9],109%
same,"viability, T/C",[10],107%
same,"viability, T/C",[11],108%
same,"viability, T/C",[12],102%
same,"viability, T/C",[13],112%
same,"viability, T/C",[14],104%
same,"viability, T/C",[15],109%
same,"viability, T/C",[16],112%
same,"viability, T/C",[17],107%
same,"viability, T/C",[18],112%
same,"viability, T/C",[19],122%
same,"viability, T/C",[20],123%
same,"viability, T/C",[21],114%
same,"viability, T/C",[22],120%
same,"viability, T/C",[23],124%
same,"viability, T/C",[24],109%
same,"viability, T/C","second compound 3.16 µM, first compound 0.00316 µM",125%
same,"viability, T/C","second compound 3.16 µM, first compound 0.01 µM",107%
same,"viability, T/C","second compound 3.16 µM, first compound 0.0316 µM",109%
same,"viability, T/C","second compound 3.16 µM, first compound 0.1 µM",112%
same,"viability, T/C","second compound 3.16 µM, first compound 0.316 µM",109%
same,"viability, T/C","second compound 3.16 µM, first compound 1 µM",105%
same,"viability, T/C","second compound 10 µM, first compound 0.00316 µM",102%
same,"viability, T/C","second compound 10 µM, first compound 0.01 µM",93.8%
same,"viability, T/C","second compound 10 µM, first compound 0.0316 µM",92.8%
same,"viability, T/C","second compound 10 µM, first compound 0.1 µM",99.3%
same,"viability, T/C","second compound 10 µM, first compound 0.316 µM",110%
same,"viability, T/C","second compound 10 µM, first compound 1 µM",93%
CC1(C)CCC(Nc2ncc(C(F)(F)F)c(-c3c[nH]c4c(P(C)(C)=O)c(C#N)ccc34)n2)CN1 (stereo not drawn) + C#Cc1c(F)ccc2cc(O)cc(-c3ncc4c(N5CC6CCC(C5)N6)nc(OCC56CCCN5CC(F)C6)nc4c3F)c12,pIC50,second compound 0.0316 µM,7.72
same,pIC50,second compound 0.1 µM,7.87
same,pIC50,second compound 0.316 µM,7.72
same,pIC50,second compound 1 µM,7.97
same,pIC50,second compound 3.16 µM,8.08
same,pIC50,second compound 10 µM,8.23
same,"viability, T/C",[25],103%
same,"viability, T/C",[26],112%
same,"viability, T/C",[27],70.1%
same,"viability, T/C",[28],37.4%
same,"viability, T/C",[29],35.9%
same,"viability, T/C",[30],36.8%
same,"viability, T/C",[31],107%
same,"viability, T/C",[32],105%
same,"viability, T/C",[33],56.7%
same,"viability, T/C",[34],37.7%
same,"viability, T/C",[35],31.8%
same,"viability, T/C",[36],28.2%
same,"viability, T/C",[37],109%
same,"viability, T/C",[38],105%
same,"viability, T/C",[39],66.5%
same,"viability, T/C",[40],40.5%
same,"viability, T/C",[41],32.3%
same,"viability, T/C",[42],31.9%
same,"viability, T/C",[43],117%
same,"viability, T/C",[44],108%
same,"viability, T/C",[45],52.1%
same,"viability, T/C",[46],31.2%
same,"viability, T/C",[47],27.8%
same,"viability, T/C",[48],31.2%
same,"viability, T/C",[49],109%
same,"viability, T/C",[50],89.3%
same,"viability, T/C",[51],45.8%
same,"viability, T/C",[52],27.8%
same,"viability, T/C",[53],34.1%
same,"viability, T/C",[54],36.7%
same,"viability, T/C",[55],96.5%
same,"viability, T/C",[56],69.3%
same,"viability, T/C",[57],37.5%
same,"viability, T/C",[58],24.7%
same,"viability, T/C",[59],32.5%
same,"viability, T/C",[60],31.7%
CCc1c2c(nc3ccc(O)cc13)-c1cc3c(c(=O)n1C2)COC(=O)[C@]3(O)CC + C#Cc1c(F)ccc2cc(O)cc(-c3ncc4c(N5CC6CCC(C5)N6)nc(OCC56CCCN5CC(F)C6)nc4c3F)c12,pIC50,second compound 0.0316 µM,7.99
same,pIC50,second compound 0.1 µM,7.97
same,pIC50,second compound 0.316 µM,7.77
same,pIC50,second compound 1 µM,8.11
same,pIC50,second compound 3.16 µM,8.33
same,pIC50,second compound 10 µM,> 9.02
same,"viability, T/C",[25],108%
same,"viability, T/C",[26],108%
same,"viability, T/C",[27],50.2%
same,"viability, T/C",[28],35%
same,"viability, T/C",[29],21.1%
same,"viability, T/C",[30],16.5%
same,"viability, T/C",[31],116%
same,"viability, T/C",[32],103%
same,"viability, T/C",[33],50.8%
same,"viability, T/C",[34],27.9%
same,"viability, T/C",[35],21.6%
same,"viability, T/C",[36],13.6%
same,"viability, T/C",[37],112%
same,"viability, T/C",[38],100%
same,"viability, T/C",[39],63%
same,"viability, T/C",[40],36%
same,"viability, T/C",[41],20.6%
same,"viability, T/C",[42],14%
same,"viability, T/C",[43],120%
same,"viability, T/C",[44],89.6%
same,"viability, T/C",[45],38.7%
same,"viability, T/C",[46],30.5%
same,"viability, T/C",[47],20.2%
same,"viability, T/C",[48],15.8%
same,"viability, T/C",[49],89.3%
same,"viability, T/C",[50],65.8%
same,"viability, T/C",[51],25.1%
same,"viability, T/C",[52],20%
same,"viability, T/C",[53],15.1%
same,"viability, T/C",[54],13.2%
same,"viability, T/C",[55],47.1%
same,"viability, T/C",[56],45%
same,"viability, T/C",[57],17.5%
same,"viability, T/C",[58],17.6%
same,"viability, T/C",[59],16.6%
same,"viability, T/C",[60],10.7%
C=CC(=O)Nc1cc(Nc2nccc(-c3cn(C)c4ccccc34)n2)c(OC)cc1N(C)CCN(C)C + C=CC(=O)N1CCN(c2nc(OCC3CCCN3C)nc3c(F)c(-c4nc(N)cc(C)c4C(F)(F)F)c(Cl)cc23)C(C)C1,pIC50,second compound 0.00316 µM,< 6.00
same,pIC50,second compound 0.01 µM,< 6.00
same,pIC50,second compound 0.0316 µM,< 6.00
same,pIC50,second compound 0.1 µM,< 6.00
same,pIC50,second compound 0.316 µM,< 6.00
same,pIC50,second compound 1 µM,< 6.00
same,"viability, T/C","second compound 0.00316 µM, first compound 0.00316 µM",95.8%
same,"viability, T/C","second compound 0.00316 µM, first compound 0.01 µM",105%
same,"viability, T/C","second compound 0.00316 µM, first compound 0.0316 µM",107%
same,"viability, T/C","second compound 0.00316 µM, first compound 0.1 µM",104%
same,"viability, T/C","second compound 0.00316 µM, first compound 0.316 µM",106%
same,"viability, T/C","second compound 0.00316 µM, first compound 1 µM",85.6%
same,"viability, T/C","second compound 0.01 µM, first compound 0.00316 µM",93%
same,"viability, T/C","second compound 0.01 µM, first compound 0.01 µM",108%
same,"viability, T/C","second compound 0.01 µM, first compound 0.0316 µM",99%
same,"viability, T/C","second compound 0.01 µM, first compound 0.1 µM",101%
same,"viability, T/C","second compound 0.01 µM, first compound 0.316 µM",108%
same,"viability, T/C","second compound 0.01 µM, first compound 1 µM",101%
same,"viability, T/C",[1],101%
same,"viability, T/C",[2],110%
same,"viability, T/C",[3],107%
same,"viability, T/C",[4],99.3%
same,"viability, T/C",[5],108%
same,"viability, T/C",[6],96%
same,"viability, T/C",[7],103%
same,"viability, T/C",[8],102%
same,"viability, T/C",[9],88.6%
same,"viability, T/C",[10],106%
same,"viability, T/C",[11],128%
same,"viability, T/C",[12],74.2%
same,"viability, T/C",[13],105%
same,"viability, T/C",[14],98.9%
same,"viability, T/C",[15],99.4%
same,"viability, T/C",[16],106%
same,"viability, T/C",[17],109%
same,"viability, T/C",[18],74.4%
same,"viability, T/C",[19],96.9%
same,"viability, T/C",[20],98.3%
same,"viability, T/C",[21],91%
same,"viability, T/C",[22],114%
same,"viability, T/C",[23],110%
same,"viability, T/C",[24],68.9%
